The values below come from ChEMBL document CHEMBL5465560, “Selectivity Literature for EUbOPEN Chemogenomic Library” (2024).

Test [1] deals with Histone-lysine N-methyltransferase, H3 lysine-36 specific (Homo sapiens) (UniProt Q96L73). Briefly: Selectivity interaction (Methyltransferase screen (radiometric assays, panel of 8 PRMTs, 21 protein lysine methyltransferases, 3 DNA methyltransferases, and one RNA methyltransferase)) EUB0000271b NSD1. Conditions: at 10 µM.
In test [2] the target is Cyclin-dependent kinase 19 (Homo sapiens) (UniProt Q9BWU1). Briefly: Selectivity interaction (KinomeScan (DiscoverX)) EUB0000229b CDK19. Conditions: at 10 µM.
Test [3] has as its target T1, Muscle, skeletal receptor tyrosine-protein kinase (Homo sapiens) (UniProt O15146).
T1 sequence (whole entry): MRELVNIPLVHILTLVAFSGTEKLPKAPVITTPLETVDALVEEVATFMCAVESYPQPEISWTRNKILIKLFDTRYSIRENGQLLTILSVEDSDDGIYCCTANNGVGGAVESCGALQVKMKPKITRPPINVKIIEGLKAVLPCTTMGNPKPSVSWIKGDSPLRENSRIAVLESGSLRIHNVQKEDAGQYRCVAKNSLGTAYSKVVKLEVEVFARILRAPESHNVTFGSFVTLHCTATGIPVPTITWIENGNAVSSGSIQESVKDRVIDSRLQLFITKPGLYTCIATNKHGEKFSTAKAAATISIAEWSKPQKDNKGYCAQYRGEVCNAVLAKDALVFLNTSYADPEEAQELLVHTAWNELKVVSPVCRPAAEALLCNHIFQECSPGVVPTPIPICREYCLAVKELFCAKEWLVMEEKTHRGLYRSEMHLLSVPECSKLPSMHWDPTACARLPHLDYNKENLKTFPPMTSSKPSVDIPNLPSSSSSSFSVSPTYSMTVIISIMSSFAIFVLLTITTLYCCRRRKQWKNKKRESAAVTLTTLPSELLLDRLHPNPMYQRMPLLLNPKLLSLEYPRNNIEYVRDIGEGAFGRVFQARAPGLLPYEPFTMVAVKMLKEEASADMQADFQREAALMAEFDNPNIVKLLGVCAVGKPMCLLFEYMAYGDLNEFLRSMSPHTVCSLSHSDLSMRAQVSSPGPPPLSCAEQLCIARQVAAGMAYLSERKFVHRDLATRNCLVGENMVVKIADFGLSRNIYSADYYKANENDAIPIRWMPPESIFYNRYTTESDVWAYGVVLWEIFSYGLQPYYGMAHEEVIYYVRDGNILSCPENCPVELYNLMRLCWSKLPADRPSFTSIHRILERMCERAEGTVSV
Briefly: Selectivity interaction (KinomeScan (DiscoverX)) EUB0000655a MUSK. Conditions: at 10 µM.

For the next test, the target named is Ephrin type-A receptor 4 (Homo sapiens, UniProt P54764). Briefly: Selectivity interaction (KinomeScan (DiscoverX)) EUB0001079a EPHA4. Conditions: at 1 µM.
Test [4] concerns the target Mitogen-activated protein kinase kinase kinase kinase 4 (Homo sapiens, UniProt O95819). Briefly: Selectivity interaction (KinomeScan (DiscoverX)) EUB0001619a MAP4K4. Conditions: at 1 µM.
Test [5] has as its target Dual specificity protein kinase CLK3 (Homo sapiens, UniProt P49761). In words: Selectivity interaction (Kinase panel (Invitrogen)) EUB0000639a CLK3. Conditions: at 200 nM.
The target of test [6] is Serine/threonine-protein kinase Nek7 (Homo sapiens) (UniProt Q8TDX7). In words: Selectivity interaction (ActivX KiNativ screen (kinase selectivity in THP-1 cell lysates)) EUB0000639a NEK7. Type of test: subcellular. Conditions: lysate, at 0.2 µM.
Test [7] deals with Phosphatidylinositol 4-kinase beta (Homo sapiens, UniProt Q9UBF8). Briefly: Selectivity interaction (ActivX KiNativ screen (kinase selectivity in THP-1 cell lysates)) EUB0000639a PI4KB. Conditions: lysate, at 0.04 µM. It counts as subcellular.
Test [8] concerns the target T2, Aurora kinase A (Homo sapiens) (UniProt O14965).
T2 sequence (whole entry): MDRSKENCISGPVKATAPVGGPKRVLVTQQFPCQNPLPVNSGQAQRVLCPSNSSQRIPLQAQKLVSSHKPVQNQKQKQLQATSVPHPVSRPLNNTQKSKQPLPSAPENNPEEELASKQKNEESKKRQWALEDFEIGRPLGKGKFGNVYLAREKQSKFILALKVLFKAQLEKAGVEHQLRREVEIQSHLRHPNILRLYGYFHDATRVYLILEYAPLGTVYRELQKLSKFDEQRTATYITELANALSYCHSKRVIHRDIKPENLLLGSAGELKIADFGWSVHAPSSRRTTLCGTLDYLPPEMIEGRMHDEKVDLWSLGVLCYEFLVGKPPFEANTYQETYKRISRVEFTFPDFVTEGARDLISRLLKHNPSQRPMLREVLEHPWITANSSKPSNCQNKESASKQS
Conditions: at 10 µM.

In test [9] the target is Interleukin-1 receptor-associated kinase 1 (Homo sapiens) (UniProt P51617). In words: Selectivity interaction (KinomeScan (DiscoverX)) EUB0000618a IRAK1. Conditions: at 10 µM.
In test [10] the target is MAP kinase-activated protein kinase 2 (Homo sapiens, UniProt P49137). In words: Selectivity interaction (KinomeScan (DiscoverX)) EUB0000618a MAPKAPK2. Conditions: at 10 µM.
The target in test [11] is Calcium/calmodulin-dependent protein kinase type II subunit alpha (Homo sapiens, UniProt Q9UQM7). In words: Selectivity interaction (KinomeScan (DiscoverX)) EUB0000618a CAMK2A. Conditions: at 10 µM.
Test [12] deals with Mitogen-activated protein kinase kinase kinase 1 (Homo sapiens, UniProt Q13233). Briefly: Selectivity interaction (KinomeScan (DiscoverX)) EUB0000618a MAP3K1. Conditions: at 10 µM.
Test [13] deals with Angiopoietin-1 receptor (Homo sapiens) (UniProt Q02763). In words: Selectivity interaction (KinomeScan (DiscoverX)) EUB0000595a TEK. Conditions: at 10 µM.
Chain of Angiopoietin-1 receptor (Homo sapiens) (Q02763 whole entry): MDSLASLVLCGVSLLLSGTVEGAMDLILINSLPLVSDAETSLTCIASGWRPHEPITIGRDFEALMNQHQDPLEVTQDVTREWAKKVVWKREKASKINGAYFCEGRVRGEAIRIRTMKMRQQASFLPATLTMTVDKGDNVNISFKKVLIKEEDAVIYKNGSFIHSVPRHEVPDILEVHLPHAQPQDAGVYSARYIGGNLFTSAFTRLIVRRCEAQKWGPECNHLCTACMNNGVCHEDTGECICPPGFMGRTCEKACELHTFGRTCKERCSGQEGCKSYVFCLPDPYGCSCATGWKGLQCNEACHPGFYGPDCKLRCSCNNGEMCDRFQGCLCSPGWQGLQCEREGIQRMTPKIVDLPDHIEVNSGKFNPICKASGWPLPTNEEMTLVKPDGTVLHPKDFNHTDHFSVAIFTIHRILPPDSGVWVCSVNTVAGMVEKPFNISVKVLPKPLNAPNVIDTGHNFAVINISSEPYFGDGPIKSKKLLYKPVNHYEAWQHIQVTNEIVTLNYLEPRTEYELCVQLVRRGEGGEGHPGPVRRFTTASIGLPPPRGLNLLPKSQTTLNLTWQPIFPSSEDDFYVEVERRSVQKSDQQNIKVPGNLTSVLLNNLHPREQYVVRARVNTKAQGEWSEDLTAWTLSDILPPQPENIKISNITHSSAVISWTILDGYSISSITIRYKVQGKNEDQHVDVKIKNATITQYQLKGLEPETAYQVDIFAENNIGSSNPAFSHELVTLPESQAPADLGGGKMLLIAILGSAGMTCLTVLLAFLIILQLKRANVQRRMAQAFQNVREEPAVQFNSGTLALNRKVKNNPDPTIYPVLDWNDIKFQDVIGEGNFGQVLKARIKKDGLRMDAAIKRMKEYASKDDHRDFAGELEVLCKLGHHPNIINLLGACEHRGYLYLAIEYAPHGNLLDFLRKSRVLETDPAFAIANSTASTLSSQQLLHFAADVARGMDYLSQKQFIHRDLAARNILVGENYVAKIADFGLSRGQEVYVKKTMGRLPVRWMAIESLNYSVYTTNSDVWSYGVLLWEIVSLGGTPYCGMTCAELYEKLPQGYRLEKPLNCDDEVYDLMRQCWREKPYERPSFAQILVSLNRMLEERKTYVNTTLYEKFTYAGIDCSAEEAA

Chain of Mitogen-activated protein kinase kinase kinase kinase 4 (O95819 2-1239 limits assumed): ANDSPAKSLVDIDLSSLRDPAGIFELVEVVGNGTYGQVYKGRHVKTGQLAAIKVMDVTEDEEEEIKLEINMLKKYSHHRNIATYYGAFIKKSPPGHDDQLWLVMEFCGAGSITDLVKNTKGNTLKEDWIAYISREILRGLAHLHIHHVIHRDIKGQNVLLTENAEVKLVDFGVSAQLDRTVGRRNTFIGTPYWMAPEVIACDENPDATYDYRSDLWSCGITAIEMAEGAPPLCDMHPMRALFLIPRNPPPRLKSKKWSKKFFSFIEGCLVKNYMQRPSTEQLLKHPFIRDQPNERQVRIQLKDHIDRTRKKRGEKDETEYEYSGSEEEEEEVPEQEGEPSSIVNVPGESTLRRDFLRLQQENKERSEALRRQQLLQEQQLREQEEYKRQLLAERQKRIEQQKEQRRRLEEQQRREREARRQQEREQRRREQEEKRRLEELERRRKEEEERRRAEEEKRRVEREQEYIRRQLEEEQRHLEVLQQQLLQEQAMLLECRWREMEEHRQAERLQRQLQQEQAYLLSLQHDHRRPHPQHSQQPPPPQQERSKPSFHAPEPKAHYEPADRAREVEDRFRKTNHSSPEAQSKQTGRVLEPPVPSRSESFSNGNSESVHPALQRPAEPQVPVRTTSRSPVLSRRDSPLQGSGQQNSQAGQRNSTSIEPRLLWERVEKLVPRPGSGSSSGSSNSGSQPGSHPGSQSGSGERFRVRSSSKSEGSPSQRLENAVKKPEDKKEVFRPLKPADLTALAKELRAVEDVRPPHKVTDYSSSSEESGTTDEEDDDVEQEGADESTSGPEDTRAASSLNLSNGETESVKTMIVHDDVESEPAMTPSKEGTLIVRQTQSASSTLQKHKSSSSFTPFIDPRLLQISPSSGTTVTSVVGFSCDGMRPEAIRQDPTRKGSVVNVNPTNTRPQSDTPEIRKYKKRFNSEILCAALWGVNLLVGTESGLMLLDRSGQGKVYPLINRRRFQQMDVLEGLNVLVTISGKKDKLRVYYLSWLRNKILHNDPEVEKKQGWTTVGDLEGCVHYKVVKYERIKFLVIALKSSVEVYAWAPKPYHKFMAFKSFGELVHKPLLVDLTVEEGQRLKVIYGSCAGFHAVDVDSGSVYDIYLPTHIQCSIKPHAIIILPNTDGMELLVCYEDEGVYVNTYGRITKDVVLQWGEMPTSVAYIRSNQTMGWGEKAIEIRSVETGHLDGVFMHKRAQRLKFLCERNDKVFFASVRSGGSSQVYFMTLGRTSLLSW
Chain of Histone-lysine N-methyltransferase, H3 lysine-36 specific (Homo sapiens) (Q96L73 whole entry): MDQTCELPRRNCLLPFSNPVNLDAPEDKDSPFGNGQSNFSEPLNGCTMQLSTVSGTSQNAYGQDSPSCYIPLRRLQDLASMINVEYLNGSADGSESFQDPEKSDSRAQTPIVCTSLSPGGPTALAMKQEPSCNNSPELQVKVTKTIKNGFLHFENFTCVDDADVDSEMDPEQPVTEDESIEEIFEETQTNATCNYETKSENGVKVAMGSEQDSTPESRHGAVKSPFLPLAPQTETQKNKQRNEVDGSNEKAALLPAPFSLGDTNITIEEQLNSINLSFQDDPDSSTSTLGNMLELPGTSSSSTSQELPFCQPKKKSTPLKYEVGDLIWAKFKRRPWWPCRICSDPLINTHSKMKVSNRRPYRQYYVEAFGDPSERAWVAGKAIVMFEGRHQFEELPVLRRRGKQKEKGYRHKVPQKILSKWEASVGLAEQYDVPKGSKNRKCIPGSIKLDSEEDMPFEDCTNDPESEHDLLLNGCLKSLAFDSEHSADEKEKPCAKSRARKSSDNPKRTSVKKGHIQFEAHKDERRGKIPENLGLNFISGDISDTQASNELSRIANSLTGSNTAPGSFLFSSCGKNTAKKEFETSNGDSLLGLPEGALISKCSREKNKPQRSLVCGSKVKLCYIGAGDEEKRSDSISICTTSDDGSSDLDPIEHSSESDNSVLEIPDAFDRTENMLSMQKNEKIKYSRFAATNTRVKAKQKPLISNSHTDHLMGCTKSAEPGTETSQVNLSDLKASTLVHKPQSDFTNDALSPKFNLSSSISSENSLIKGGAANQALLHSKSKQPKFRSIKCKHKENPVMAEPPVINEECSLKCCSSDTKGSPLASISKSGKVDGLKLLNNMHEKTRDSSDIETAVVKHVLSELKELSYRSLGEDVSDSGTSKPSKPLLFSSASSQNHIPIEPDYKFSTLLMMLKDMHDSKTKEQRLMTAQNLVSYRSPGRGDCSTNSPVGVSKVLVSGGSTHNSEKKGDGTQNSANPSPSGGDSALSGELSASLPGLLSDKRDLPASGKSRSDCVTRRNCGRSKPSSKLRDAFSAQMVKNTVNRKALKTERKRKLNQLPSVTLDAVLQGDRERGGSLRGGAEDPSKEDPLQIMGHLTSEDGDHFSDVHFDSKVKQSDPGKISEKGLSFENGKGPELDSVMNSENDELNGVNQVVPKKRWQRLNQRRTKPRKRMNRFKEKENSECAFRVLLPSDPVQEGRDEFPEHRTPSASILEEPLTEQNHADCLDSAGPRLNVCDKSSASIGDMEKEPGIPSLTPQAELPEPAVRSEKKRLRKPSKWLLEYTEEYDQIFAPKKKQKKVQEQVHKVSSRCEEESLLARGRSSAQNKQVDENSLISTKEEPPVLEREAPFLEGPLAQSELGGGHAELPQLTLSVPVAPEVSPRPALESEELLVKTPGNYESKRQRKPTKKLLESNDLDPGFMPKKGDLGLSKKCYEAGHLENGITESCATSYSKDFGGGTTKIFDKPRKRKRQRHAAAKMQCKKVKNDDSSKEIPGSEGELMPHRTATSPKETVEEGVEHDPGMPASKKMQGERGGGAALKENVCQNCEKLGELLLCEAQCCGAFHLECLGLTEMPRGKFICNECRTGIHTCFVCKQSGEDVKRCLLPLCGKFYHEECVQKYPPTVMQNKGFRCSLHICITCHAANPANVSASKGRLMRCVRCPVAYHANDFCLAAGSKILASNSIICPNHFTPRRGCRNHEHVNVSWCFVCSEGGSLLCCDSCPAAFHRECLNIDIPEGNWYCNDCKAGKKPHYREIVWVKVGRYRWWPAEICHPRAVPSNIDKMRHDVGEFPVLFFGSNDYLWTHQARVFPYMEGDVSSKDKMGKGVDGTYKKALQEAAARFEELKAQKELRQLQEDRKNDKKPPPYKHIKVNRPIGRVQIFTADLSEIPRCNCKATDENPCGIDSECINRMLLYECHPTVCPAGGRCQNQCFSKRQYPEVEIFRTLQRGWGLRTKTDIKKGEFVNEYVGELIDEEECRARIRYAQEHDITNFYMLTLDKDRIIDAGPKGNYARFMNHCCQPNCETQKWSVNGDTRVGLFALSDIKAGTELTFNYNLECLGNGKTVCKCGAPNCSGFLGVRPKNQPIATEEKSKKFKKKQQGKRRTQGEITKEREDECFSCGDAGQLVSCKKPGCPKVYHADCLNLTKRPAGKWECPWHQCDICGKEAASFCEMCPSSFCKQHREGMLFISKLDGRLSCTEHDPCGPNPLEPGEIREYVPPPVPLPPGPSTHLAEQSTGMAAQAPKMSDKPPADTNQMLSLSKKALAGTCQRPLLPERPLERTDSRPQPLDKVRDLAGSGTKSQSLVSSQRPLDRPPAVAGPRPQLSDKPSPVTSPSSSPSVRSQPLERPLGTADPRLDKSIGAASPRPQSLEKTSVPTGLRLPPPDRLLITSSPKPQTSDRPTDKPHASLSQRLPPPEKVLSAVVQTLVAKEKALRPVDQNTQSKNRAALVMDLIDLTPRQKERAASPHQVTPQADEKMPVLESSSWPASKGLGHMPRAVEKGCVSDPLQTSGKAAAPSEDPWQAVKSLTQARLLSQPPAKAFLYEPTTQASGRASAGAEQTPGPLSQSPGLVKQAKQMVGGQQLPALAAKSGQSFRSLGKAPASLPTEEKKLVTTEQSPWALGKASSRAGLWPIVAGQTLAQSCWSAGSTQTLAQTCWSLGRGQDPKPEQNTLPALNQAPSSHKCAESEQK

For the compound `Cc1cc(C)cc([C@@H]2c3cc(C)ccc3NC(=O)CN2C(=O)c2ccc(Br)s2)c1`, the % of activity in test [1] was found to be 105%.
In test [2], `COc1cc(N(C)c2ccnc3ccc(C(F)(F)F)cc23)cc(OC)c1OC` gave a % binding of 69%.
Compound `CN(C)CCOc1ccc(-c2nc(-c3ccncc3)c(-c3ccc4c(c3)CC/C4=N\O)[nH]2)cc1` gave a % of control in test [3] of 98%.
`Nc1cnc(N2CCc3cc(S(=O)(=O)Nc4c(F)cc(Cl)cc4F)cc(N4CCCC4=O)c32)nc1` [TP-020n] gave a % of control on Ephrin type-A receptor 4 of 100%.
As for `N#Cc1cccc(-c2c[nH]c3ncnc(N4CCOCC4)c23)c1`, in test [4], the % of control worked out at 71%.
Take `CC[C@@H]1[C@H](F)C(=O)N[C@@H]1COc1nccc2cc(C(N)=O)c(OC)cc12` [ZIMLOVISERTIB]: the % of inhibition in test [5] is 8.76%; in test [6], -2.2%; in test [7], -0.3%.
`CCN(CC)CCCCNc1ncc2cc(-c3cc(OC)cc(OC)c3)c(NC(=O)NC(C)(C)C)nc2n1` displayed a % of control in test [8] of 100%.
Regarding `O[C@H]1CC[C@H](Nc2ncc3nc(Nc4c(F)cc(F)cc4F)n([C@H]4CCOC4)c3n2)CC1`, the % of control was 38% in [9], 71% in test [10], 95% in test [11] and 91% in test [12].
Compound `COCC(=O)NC/C=C/c1ccc2ncnc(Nc3ccc(Oc4ccc(C)nc4)c(C)c3)c2c1` [CP-724714] yielded a % of control in test [13] of 100%.
